Active and inactive are the calls of the source. The calls are words filed in the database; no cut-off is given here.
Legend:
[1] = system: r(CUG) repeat expansion; assay: Inhibition of d(CTG.CAG)90 transcription (unknown origin) assessed as inhibition of r(CUG)90 formation at 10 uM incubated for 3.5 hrs measured after 1.5 hrs in presence of T7 RNA polymerase by SDS-PAGE analysis relative to control; assay type: nucleic-acid assay; conditions: Homo sapiens, time 5.0 hrs
[2] = target: r(CUG) repeat expansion; assay: Inhibition of d(CTG.CAG)90 transcription (unknown origin) assessed as inhibition of r(CUG)90 formation incubated for 3.5 hrs measured after 1.5 hrs in presence of T7 RNA polymerase by SDS-PAGE analysis; assay type: nucleic-acid assay, Homo sapiens
[3] = system: r(CUG) repeat expansion; assay: Inhibition of d(CTG.CAG)90 transcription (unknown origin) assessed as inhibition of r(CUG)90 formation at 60 uM incubated for 3.5 hrs measured after 1.5 hrs in presence of T7 RNA polymerase by SDS-PAGE analysis; assay type: nucleic-acid assay; conditions: Homo sapiens, time 5.0 hrs

SMILES | inhibition [1] | IC50 [2] | inhibition [3]
N=C(NCCCCNc1nc(N)nc(NCc2ccc(/C=N/c3ccc(CNc4nc(N)nc(NCc5ccc(N)cc5)n4)cc3)cc2)n1)c1ccc(C(=N)NCCCCNc2nc(N)nc(NCc3ccc(CO)cc3)n2)cc1 | 34.8% | 25.9 µM | Active
COc1ccc2nc3cc(Cl)ccc3c(NC/C=N/CCCCNc3nc(N)nc(NCCCC/N=C/c4ccc(CNc5nc(N)nc(N)n5)cc4)n3)c2c1 | 19.9% | 44 µM | 
N=C(NCc1ccc(N)cc1)c1ccc(C(=N)NCc2ccc(/N=C/c3ccc(/C=N/CCCCNc4nc(N)nc(NCCCCN)n4)cc3)cc2)cc1 | 21.3% | > 60 µM | 
COc1ccc2nc3cc(Cl)ccc3c(NC/C=N/CCCCNC(=O)c3cccc4c(NCCCCNc5nc(N)nc(N)n5)c5ccccc5nc34)c2c1 | 23.2% | 36.2 µM | 
N=C(NCCCCNc1nc(N)nc(NCc2ccc(/C=N/CCCCn3cnc4c(N)ncnc43)cc2)n1)c1ccc(C(=N)NCCCCNc2nc(N)nc(NCc3ccc(/C=N/c4ccc(CNC(=N)c5ccc(C(=N)NCc6ccc(N)cc6)cc5)cc4)cc3)n2)cc1 | 13.9% | 34.2 µM | 
